In US9908893B2 (Latvian Institute of Organic Synthesis, priority 2013, dated 2018):

Columns and labels:
P-glycoprotein (P-gp) = P-glycoprotein (P-gp) (Homo sapiens, UniProt P08183); assay: Measurement of P-glycoprotein activity: rhodamine 123 accumulation in MES-SA and MES-SA/Dx5 cells; conditions: for inhibition of MDR transport proteins (P-gp, MRP1, BCRP1), summary in words: summary of the P-gp, MRP1 and BCRP1 efflux assays; for MDR, EC50, P-gp: rhodamine 123 accumulation, doxorubicin resistant MES-SA/Dx5 cells
P-glycoprotein (P-gp), sequence (P08183 whole entry): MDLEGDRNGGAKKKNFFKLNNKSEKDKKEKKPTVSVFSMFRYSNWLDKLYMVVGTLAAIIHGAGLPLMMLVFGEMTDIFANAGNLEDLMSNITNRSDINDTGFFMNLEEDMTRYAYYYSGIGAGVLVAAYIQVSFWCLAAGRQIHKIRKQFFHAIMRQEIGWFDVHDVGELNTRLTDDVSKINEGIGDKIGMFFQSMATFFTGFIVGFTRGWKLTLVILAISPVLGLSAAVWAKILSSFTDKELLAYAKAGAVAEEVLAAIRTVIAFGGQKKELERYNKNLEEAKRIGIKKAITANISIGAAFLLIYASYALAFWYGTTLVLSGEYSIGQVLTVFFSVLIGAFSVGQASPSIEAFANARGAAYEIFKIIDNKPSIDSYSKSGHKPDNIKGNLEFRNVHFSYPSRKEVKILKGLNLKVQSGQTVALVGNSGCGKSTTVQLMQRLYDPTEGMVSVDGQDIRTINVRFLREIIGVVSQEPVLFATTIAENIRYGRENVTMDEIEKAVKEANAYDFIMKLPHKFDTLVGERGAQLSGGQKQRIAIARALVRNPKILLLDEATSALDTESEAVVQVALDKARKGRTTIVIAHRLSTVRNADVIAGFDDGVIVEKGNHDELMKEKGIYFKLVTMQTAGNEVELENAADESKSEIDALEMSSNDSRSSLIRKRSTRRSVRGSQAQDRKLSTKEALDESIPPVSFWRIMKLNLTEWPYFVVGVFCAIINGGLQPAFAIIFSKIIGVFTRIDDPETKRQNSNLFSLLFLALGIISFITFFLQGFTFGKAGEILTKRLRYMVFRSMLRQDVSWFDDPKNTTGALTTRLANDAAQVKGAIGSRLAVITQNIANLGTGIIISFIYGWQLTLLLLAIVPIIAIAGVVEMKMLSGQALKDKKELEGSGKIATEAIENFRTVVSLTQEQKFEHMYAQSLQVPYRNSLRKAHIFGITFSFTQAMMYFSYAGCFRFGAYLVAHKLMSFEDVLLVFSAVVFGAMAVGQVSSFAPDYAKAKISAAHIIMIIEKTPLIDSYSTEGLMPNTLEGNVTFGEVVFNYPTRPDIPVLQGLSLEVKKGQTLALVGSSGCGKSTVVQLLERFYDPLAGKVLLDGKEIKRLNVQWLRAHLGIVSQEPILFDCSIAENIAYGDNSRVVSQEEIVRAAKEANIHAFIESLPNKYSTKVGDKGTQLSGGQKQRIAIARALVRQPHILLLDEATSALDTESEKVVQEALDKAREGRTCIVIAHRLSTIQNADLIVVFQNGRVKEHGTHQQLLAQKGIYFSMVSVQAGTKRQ
Procedure: (§1) Thieno[2,3-b]pyridines of the formula (I) were tested to reveal MDR-blocking activity.
About 50,000 cells/well of the human uterine sarcoma cell line MESSA and MES-SA/Dx5 were seeded into the 96-well plates and incubated for 24 h. The MDR modulators were incubated with the cells for 15 min. […] The EC50 values were calculated using the program Graph Pad Prism® 4.0.

[1] = system: A7R5 (rat aorta smooth muscle) cells; assay: Intracellular Ca2+ measurements, Fluo-4 NW Calcium Assay Kit, KCl-induced [Ca2+]i increase; type: cell-based; conditions: for IC50: Rattus norvegicus, A7R5, read-out: Ca^2+ A7R5, IC50; for Ca^2+ antagonist effect compared with Verapamil: relative to Verapamil; for Ca^2+ antagonist effect compared with Verapamil / Ca^2+ A7R5, IC50: A7R5 cells; for Ca^2+ A7R5, IC50: KCl (50 mM) induced [Ca2+]i increase, compounds 0.8 to 100 μM
Procedure: Changes in intracellular [Ca^2+] concentration were studied using A7R5 (rat aorta smooth muscle) cells and Fluo-4 NW Calcium Assay Kit (“Invitrogen”, Sweden) according to manufacturer's instructions.
Changes in intracellular [Ca^2+]i concentration were studied using Fluo-4 NW Calcium Assay Kit (“Invitrogen”, Sweden) accordingly to manufacturer's instructions. The A7R5 (rat aorta smooth muscle) cells were grown at 37° C. in a humidified atmosphere with 5% CO2/95% air in DMEM medium containing 2 mM glutamine and supplemented with 10% FBS. The cells were seeded into 96 well plate at 10,000 cells/well and incubated for 72 h. The cells were loaded with […] for 45 min. The Fura-4NW loaded cells were pre-incubated in the dark for 15 minutes with tested compounds at concentrations from 0.8 to 100 μM. Then A7R5 cells were pre-treated with 1.5 mM CaCl2 for 5 minutes and KCl (50 mM) was added to A7R5 cells to induce [Ca^2+]i increase. Amlodipine, the well-known calcium channel inhibitor was used as the positive control.

[2] = Basal toxicity test, neutral red, alternative LD50 calculated from IC50; conditions: mouse, LD50, alternative LD50 calculated by formula from IC50 in NIH 3T3 cells
Procedure: (§2) A low therapeutic index of chemotherapy agents is due to affecting not only cancer formation but also normal cells.
(§3) 9,000 NIH 3T3 cells/well were placed into 96-well plates for 24 h and then exposed to the test compound over a range of eight concentration (1-1000 μg/ml) for 24 h. Upon that, the cells were incubated with the neutral red dye for 4 h and then OD was determined at 540 nm. […] The IC50 values were calculated using the program Graph Pad Prism® 4.0

MRP1 = MRP1 (Homo sapiens, UniProt P33527); assay: cell-based; conditions: for MDR, EC50, MRP1: calcein AM assay, DOX resistant H69AR cells
MRP1, sequence (P33527 whole entry): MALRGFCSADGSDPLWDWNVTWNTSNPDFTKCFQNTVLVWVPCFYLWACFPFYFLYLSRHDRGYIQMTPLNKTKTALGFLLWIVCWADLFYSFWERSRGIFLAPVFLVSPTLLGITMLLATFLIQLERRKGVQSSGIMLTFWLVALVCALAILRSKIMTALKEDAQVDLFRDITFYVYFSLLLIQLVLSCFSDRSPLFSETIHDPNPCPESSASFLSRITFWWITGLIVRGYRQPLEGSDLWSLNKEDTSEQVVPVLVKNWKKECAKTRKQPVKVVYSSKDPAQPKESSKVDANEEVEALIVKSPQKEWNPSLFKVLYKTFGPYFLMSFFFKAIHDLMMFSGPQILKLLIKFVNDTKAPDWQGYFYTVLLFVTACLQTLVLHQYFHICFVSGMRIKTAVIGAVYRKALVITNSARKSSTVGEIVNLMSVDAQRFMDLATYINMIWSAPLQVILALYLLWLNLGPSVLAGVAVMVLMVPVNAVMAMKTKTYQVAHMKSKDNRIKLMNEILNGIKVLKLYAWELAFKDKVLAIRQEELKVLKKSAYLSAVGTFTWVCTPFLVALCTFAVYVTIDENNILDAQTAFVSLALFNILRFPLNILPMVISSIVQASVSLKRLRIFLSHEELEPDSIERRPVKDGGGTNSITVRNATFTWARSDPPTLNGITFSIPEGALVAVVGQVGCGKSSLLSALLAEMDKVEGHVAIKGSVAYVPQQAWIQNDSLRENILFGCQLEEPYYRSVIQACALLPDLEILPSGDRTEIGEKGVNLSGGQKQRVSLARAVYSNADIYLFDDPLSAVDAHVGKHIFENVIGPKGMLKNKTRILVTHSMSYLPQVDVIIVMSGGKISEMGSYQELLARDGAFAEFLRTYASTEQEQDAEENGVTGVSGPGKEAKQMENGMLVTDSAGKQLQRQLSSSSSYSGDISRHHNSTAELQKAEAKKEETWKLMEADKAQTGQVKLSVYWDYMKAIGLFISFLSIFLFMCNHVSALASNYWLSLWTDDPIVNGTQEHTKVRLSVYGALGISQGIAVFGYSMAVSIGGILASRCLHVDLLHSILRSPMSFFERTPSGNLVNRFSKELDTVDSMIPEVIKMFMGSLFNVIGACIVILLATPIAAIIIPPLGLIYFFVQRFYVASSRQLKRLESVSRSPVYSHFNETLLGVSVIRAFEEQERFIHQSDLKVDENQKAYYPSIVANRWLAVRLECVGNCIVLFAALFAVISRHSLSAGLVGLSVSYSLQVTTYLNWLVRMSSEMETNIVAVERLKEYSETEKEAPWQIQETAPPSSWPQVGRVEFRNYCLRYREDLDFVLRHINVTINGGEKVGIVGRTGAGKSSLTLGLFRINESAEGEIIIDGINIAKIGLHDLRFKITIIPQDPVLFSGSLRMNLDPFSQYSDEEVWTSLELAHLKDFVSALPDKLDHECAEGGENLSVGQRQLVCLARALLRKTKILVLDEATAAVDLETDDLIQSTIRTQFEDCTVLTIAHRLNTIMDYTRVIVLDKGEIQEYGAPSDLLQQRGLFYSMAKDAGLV
Procedure: as §1
About 60,000 cells/well of the human lung carcinoma cell line H69 and H69AR were seeded into the 96-well plates and incubated for 24 h. The compounds were incubated with the cells for 15 min. […] The EC50 values was calculated using the program Graph Pad Prism® 4.0

BCRP1 = target: T1, BCRP1 (Homo sapiens, UniProt Q9UNQ0); assay: cell-based; conditions: for MDR, EC50, BCRP1: Hoechst 33342, mitoxantrone resistant MES-SA/MX2 cells
T1 sequence (Q9UNQ0 1-655): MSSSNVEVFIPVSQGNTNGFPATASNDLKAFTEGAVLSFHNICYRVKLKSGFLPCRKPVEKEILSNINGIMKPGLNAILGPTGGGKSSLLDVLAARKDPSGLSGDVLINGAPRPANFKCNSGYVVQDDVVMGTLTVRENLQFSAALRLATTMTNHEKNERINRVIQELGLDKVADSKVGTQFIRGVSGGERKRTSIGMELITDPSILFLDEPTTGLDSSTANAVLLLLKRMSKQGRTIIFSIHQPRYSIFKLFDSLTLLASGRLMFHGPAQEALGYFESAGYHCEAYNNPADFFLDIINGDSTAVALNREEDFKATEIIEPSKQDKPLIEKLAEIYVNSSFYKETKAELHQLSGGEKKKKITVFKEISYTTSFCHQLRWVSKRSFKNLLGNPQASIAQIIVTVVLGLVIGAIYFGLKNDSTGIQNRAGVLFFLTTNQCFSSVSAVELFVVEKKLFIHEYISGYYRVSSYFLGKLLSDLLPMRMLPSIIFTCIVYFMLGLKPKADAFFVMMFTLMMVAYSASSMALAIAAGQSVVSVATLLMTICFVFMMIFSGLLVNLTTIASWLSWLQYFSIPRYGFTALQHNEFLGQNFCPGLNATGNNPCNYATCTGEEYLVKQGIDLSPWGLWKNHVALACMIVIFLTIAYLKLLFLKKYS
Procedure: as §1
About 50,000 cells/well of the MESSA and MES-SA/MX2 were seeded into the 96-well plates and incubated for 24 h. The MDR modulators were incubated with the cells for 15 min. […] The EC50 values were calculated using the program Graph Pad Prism® 4.0

[3] = system: NIH 3T3 (normal mouse fibroblasts); assay: Basal toxicity test, neutral red, alternative LD50 calculated from IC50; conditions: alternative LD50 calculated by formula from IC50 in NIH 3T3 cells, 24 h
Procedure: as §2, §3

Compound | IC50 [1] [µM] | Ca^2+ antagonist effect compared with Verapamil [1] | LD50 at 24 h [2] [mg/kg] | further results
COC(=O)c1c(C)nc2sc(C(=O)c3ccc(OC)cc3)c(N)c2c1-c1cc(OC)c(OC)c(OC)c1 [Compound 10, 3-Amino-2-(4-methoxybenzoyl)-6-methyl-4-(3,4,5-trimethoxyphenyl)thieno[2,3-b]pyridine-5-carboxylic acid methyl ester] | 9 ± 0.7 | more than ten times lower | > 2000 | inhibition of MDR transport proteins (P-gp, MRP1, BCRP1), summary in words (P-glycoprotein (P-gp)): inhibit three MDR transport proteins: P-gp, MRP1 and BCRP1
CCOC(=O)c1c(C)nc2sc(C(=O)c3ccc(OC)cc3)c(N)c2c1-c1ccco1 [Compound 43, 3-Amino-4-(furan-2-yl)-2-(4-methoxybenzoyl)-6-methylthieno[2,3-b]pyridine-5-carboxylic acid ethyl ester] | – | – | – | MDR, EC50, P-gp (P-glycoprotein (P-gp)): No effect; MDR, EC50, MRP1 (MRP1): No effect; MDR, EC50, BCRP1 (BCRP1): No effect
CCOC(=O)c1c(C)nc2sc(C(=O)c3ccc(OC)cc3)c(N)c2c1-c1ccc(N(C)C)cc1 [Compound 29, 3-Amino-4-(4-dimethylaminophenyl)-2-(4-methoxybenzoyl)-6-methylthieno[2,3-b]-pyridine-5-carboxylic acid ethylester] | 35 ± 3 | – | > 2000 | inhibition of MDR transport proteins (P-gp, MRP1, BCRP1), summary in words (P-glycoprotein (P-gp)): selectively inhibit P-gp and BCRP1
COc1cc(-c2cc(-c3cc(OC)c(OC)c(OC)c3)c3c(N)c(C(=O)c4ccc(Cl)cc4)sc3n2)cc(OC)c1OC [Compound 47, 3-Amino-4,6-bis-(3,4,5-trimethoxyphenyl)-2-(4-chlorobenzoyl)thieno[2,3-b]-pyridine] | – | – | > 2000 | EC50 (P-glycoprotein (P-gp)): 31.4 ± 0.8 µM; MDR, EC50, MRP1 (MRP1): No effect; EC50 (BCRP1): 14.5 ± 3.5 µM
COCCOC(=O)c1c(C)nc2sc(C(=O)c3cccc(OC)c3)c(N)c2c1-c1cc(OC)c(OC)c(OC)c1 [Compound 33, 3-Amino-2-(3-methoxybenzoyl)-6-methyl-4-(3,4,5-trimethoxyphenyl)thieno[2,3-b]-pyridine-5-carboxylic acid 2-methoxyethyl ester] | 6.2 ± 0.7 | – | > 2000 | inhibition of MDR transport proteins (P-gp, MRP1, BCRP1), summary in words (P-glycoprotein (P-gp)): selectively inhibit P-gp and BCRP1
COC(=O)c1c(C)nc2sc(C(=O)c3ccc(OC)cc3OC)c(N)c2c1-c1cc(OC)c(OC)c(OC)c1 [Compound 11, 3-Amino-2-(2,4-dimethoxybenzoyl)-6-methyl-4-(3,4,5-trimethoxyphenyl)thieno[2,3-b]pyridine-5-carboxylic acid methyl ester] | 18 ± 1 | more than ten times lower | > 2000 | inhibition of MDR transport proteins (P-gp, MRP1, BCRP1), summary in words (P-glycoprotein (P-gp)): inhibit three MDR transport proteins: P-gp, MRP1 and BCRP1
COc1ccc(C(=O)c2sc3nc(-c4cc(OC)c(OC)c(OC)c4)cc(-c4cc(OC)c(OC)c(OC)c4)c3c2N)cc1 [Compound 48, 3-Amino-4,6-bis-(3,4,5-trimethoxyphenyl)-2-(4-methoxybenzoyl)thieno[2,3-b]-pyridine] | – | – | 3080 | EC50 (P-glycoprotein (P-gp)): 32.5 ± 2.1 µM; MDR, EC50, MRP1 (MRP1): No effect; MDR, EC50, BCRP1 (BCRP1): No effect; Ca^2+ A7R5, IC50 [1]: No effect
CCOC(=O)c1c(C)nc2sc(C(=O)c3ccc(OC)cc3)c(N)c2c1-c1cc(OC)c(OC)c(OC)c1 [Compound 24, 3-Amino-2-(4-methoxybenzoyl)-6-methyl-4-(3,4,5-trimethoxyphenyl)thieno[2,3-b]-pyridine-5-carboxylic acid ethyl ester] | 19 ± 3 | more than ten times lower | > 2000 | LD50 [3]: >2000 mg/kg
CCOC(=O)c1c(C)nc2sc(C(=O)c3ccc(OC)cc3OC)c(N)c2c1-c1cc(OC)c(OC)c(OC)c1 [Compound 25, 3-Amino-2-(2,4-dimethoxybenzoyl)-6-methyl-4-(3,4,5-trimethoxyphenyl)-thieno[2,3-b]pyridine-5-carboxylic acid ethyl ester] | 46 ± 1.4 | more than ten times lower | > 2000 | LD50 [3]: >2000 mg/kg
COC(=O)c1c(C)nc2sc(C(=O)c3ccc(OC)cc3)c(N)c2c1-c1ccc(OC)c(OC)c1 [Compound 6, 3-Amino-4-(3,4-dimethoxyphenyl)-2-(4-methoxybenzoyl)-6-methyl-thieno[2,3-b]-pyridine-5-carboxylic acid methyl ester] | 6 ± 0.8 | more than ten times lower | > 2000 | LD50 [3]: 2808 mg/kg
COC(=O)c1c(C)nc2sc(C(=O)c3ccc4ccccc4c3)c(N)c2c1-c1cc(OC)c(OC)c(OC)c1 [Compound 41, 3-Amino-6-methyl-2-(naphthalene-2-carbonyl)-4-(3,4,5-trimethoxyphenyl)-thieno[2,3-b]pyridine-5-carboxylic acid methyl ester] | 18 ± 1.4 | – | > 2000 | EC50 (P-glycoprotein (P-gp)): 10.5 ± 0.7 µM; MDR, EC50, MRP1 (MRP1): No effect; EC50 (BCRP1): 0.8 ± 0.2 µM
CN(C)C(=O)CCSC(SCCC(=O)O)c1cccc(/C=C/c2ccc3ccc(Cl)cc3n2)c1 (stereo not drawn) [MK-571, reference compound] | – | – | 752 | MDR, EC50, P-gp (P-glycoprotein (P-gp)): No effect; Ca^2+ A7R5, IC50 [1]: No effect
CCOC(=O)c1c(C)nc2sc(C(=O)c3ccc(OC)cc3)c(N)c2c1-c1ccc(OCC)cc1 [Compound 26, 3-Amino-4-(4-ethoxyphenyl)-2-(4-methoxybenzoyl)-6-methylthieno[2,3-b]-pyridine-5-carboxylic acid ethyl ester] | > 100 | – | > 2000 | –
CCOC(=O)c1c(C)nc2sc(C(=O)c3ccc(OC)cc3)c(N)c2c1-c1ccc2c(c1)OCO2 [Compound 42, 3-Amino-4-(benzo[1,3]dioxol-5-yl)-2-(4-methoxybenzoyl)-6-methylthieno[2,3-b]-pyridine-5-carboxylic acid ethyl ester] | 18 ± 1 | – | 2010 | EC50 (P-glycoprotein (P-gp)): 20.4 ± 0.1 µM; EC50 (MRP1): 24.8 ± 1.2 µM; EC50 (BCRP1): 2.3 ± 0.4 µM
CCCCOC(=O)c1c(C)nc2sc(C(=O)c3ccc(OC)cc3)c(N)c2c1-c1cc(OC)c(OC)c(OC)c1 [Compound 30, 3-Amino-2-(4-methoxybenzoyl)-6-methyl-4-(3,4,5-trimethoxyphenyl)thieno[2,3-b]-pyridine-5-carboxylic acid butyl ester] | 5 ± 0.7 | – | > 2000 | –
COc1ccc(C(=O)c2sc3nc(C)c(C(C)=O)c(-c4ccc(OC)c(OC)c4)c3c2N)c(OC)c1 [Compound 2, 5-Acetyl-3-amino-2-(2,4-dimethoxybenzoyl)-4-(3,4-dimethoxyphenyl)-6-methyl-thieno[2,3-b]pyridine] | 15 ± 1.1 | – | > 2000 | –
